The numbers were not newly measured in US8691277B2, “Long acting sustained-release formulation containing dopamine receptor agonist and the preparation method thereof” (Shandong Luye Pharmaceutical Co., Ltd., priority 2004, dated 2014), which cites them from elsewhere.

The conditions of series [1]: in vivo, po.
The conditions of series [2]: in vivo.

Regarding `CCCN(CCc1cccs1)[C@H]1CCc2c(O)cccc2C1` [rotigotine], in series [1], the bioavailability was 1-5%. For the same compound, in series [2], the half-life result is recorded as “only a couple of hours”.

Turning to `CCCN[C@H]1CCc2nc(N)sc2C1` [pramipexole], the half-life entry in series [2] is listed as “only a couple of hours”.
